T/C data for 16 molecules are collected here from PubChem BioAssay AID328 (DTP/NCI, 2004).

The test has as its system BDF1 mice, P388 leukemia ip, median survival T/C. Kind of test: NCI In Vivo Anticancer Drug Screen. Data for tumor model P388 Leukemia (intraperitoneal) in B6D2F1 (BDF1) mice. The conditions noted are these: endpoint: median survival time, higher = longer survival. In a few lines:
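Transplantable tumour in mice; compound vs vehicle dosing; survival scored; ratio of treated to control reported.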

[1] abbreviates: dose: 100.0 mg/kg/injection, schedule: Q04DX003 (ip), vehicle: saline with Tween-80.
[2] abbreviates: dose: 50.0 mg/kg/injection, schedule: Q01DX009 (ip), vehicle: saline with Tween-80.
[3] abbreviates: dose: 100.0 mg/kg/injection, schedule: Q01DX009 (ip), vehicle: saline with Tween-80.
The mark [4] stands for this setting: dose: 50.0 mg/kg/injection, schedule: Q04DX003 (ip), vehicle: saline.
[5] abbreviates: dose: 100.0 mg/kg/injection, schedule: Q04DX003 (ip), vehicle: saline.
Where [6] appears, read: dose: 200.0 mg/kg/injection, schedule: Q04DX003 (ip), vehicle: saline.
The mark [7] stands for this setting: dose: 200.0 mg/kg/injection, schedule: Q01DX009 (ip), vehicle: saline with Tween-80.
[8] abbreviates: dose: 400.0 mg/kg/injection, schedule: Q01DX009 (ip), vehicle: saline with Tween-80.

Where “and” joins values, the source holds several entries; their conditions need not be identical. Equal entries are not always repeated. Toxic doses and inconclusive results are not listed.

Take `COc1cccc2c1C(=O)c1c(O)c3c(c(O)c1C2=O)C[C@@](O)(/C(C)=N/NC(=O)c1ccccc1)C[C@@H]3OC1CC(N(C)C)C(O)C(C)O1` (some centres undefined): the T/C runs as follows: (dose: 0.78 mg/kg/injection, schedule: Q01DX009 (ip), vehicle: water) 161 % of control; (dose: 1.56 mg/kg/injection, schedule: Q01DX009 (ip), vehicle: water) 186 % of control; (dose: 3.13 mg/kg/injection, schedule: Q01DX009 (ip), vehicle: water) 236 % of control; (dose: 6.25 mg/kg/injection, schedule: Q01DX009 (ip), vehicle: water) 96 % of control.
On to `Nc1nc2ccccc2c(=O)n1C(=O)c1ccccc1`, for which the T/C by setting is: under setting [1], 93 % of control; (dose: 200.0 mg/kg/injection, schedule: Q04DX003 (ip), vehicle: saline with Tween-80) 94 % of control; (dose: 400.0 mg/kg/injection, schedule: Q04DX003 (ip), vehicle: saline with Tween-80) 116 % of control.
Take `COC(=O)CCC(C)C1CCC2C3CCC4CC(SC(=N)N)CCC4(C)C3CCC12C` (centres undefined): the T/C was 93 % of control (dose: 1.56 mg/kg/injection, schedule: Q01DX009 (ip), vehicle: suspension in saline); 100 % of control (dose: 3.13 mg/kg/injection, schedule: Q01DX009 (ip), vehicle: suspension in saline); 109 % of control (dose: 6.25 mg/kg/injection, schedule: Q01DX009 (ip), vehicle: suspension in saline); 105 % of control under setting [2]; 103 % of control under setting [3].
For `CCCCCC[n+]1cccc(C(N)=O)c1`, the T/C by setting is: under setting [4], 104 % of control; under setting [5], 100 % of control; under setting [6], 95 % of control.
Regarding `NC(=O)c1ncc(-c2ccc(Cl)cc2)[nH]c1=O`, the T/C runs as follows: under setting [3], 95 % of control; under setting [7], 90 % of control; under setting [8], 109 % of control.
As to `Cn1c2c(sc1=O)CCC2`, the T/C under setting [4] was 100 % of control, the T/C under setting [5] is 87 % of control and the T/C under setting [6] is 100 % of control.
In the case of `CC(O)(c1ccc(Cl)cc1)C(c1ccccc1)c1ccccn1` (centres undefined), the T/C was 101 % of control (dose: 25.0 mg/kg/injection, schedule: Q01DX009 (ip), vehicle: water); 109 % of control (dose: 50.0 mg/kg/injection, schedule: Q01DX009 (ip), vehicle: water); 86 % of control (dose: 100.0 mg/kg/injection, schedule: Q01DX009 (ip), vehicle: water); 109 % of control (dose: 200.0 mg/kg/injection, schedule: Q01DX009 (ip), vehicle: water); 99 % of control (dose: 400.0 mg/kg/injection, schedule: Q01DX009 (ip), vehicle: water).
As for `CCCOc1ccc(-c2nc(-c3ccc(N=Cc4ccc(N(CCOS(C)(=O)=O)CCOS(C)(=O)=O)cc4C)cc3)cs2)cc1`, the T/C was 156 % of control (dose: 25.0 mg/kg/injection, schedule: Q04DX003 (ip), vehicle: saline with Tween-80); 175 % of control (dose: 50.0 mg/kg/injection, schedule: Q04DX003 (ip), vehicle: saline with Tween-80); 166 % of control under setting [1].
For `O=C(c1ccncc1)c1c(Cc2ccccc2)ccc2ccccc12`, the T/C under setting [2] was 92 % of control, the T/C under setting [3] is 96 % of control, the T/C under setting [7] was 90 % of control and the T/C under setting [8] was 92 % of control.
Consider `COc1ccc(CC(=O)N2CCc3cc(OC)c(OC)cc3C2O)cc1OC` (centres undefined), for which the T/C is 101 % of control (dose: 12.5 mg/kg/injection, schedule: Q01DX009 (ip), vehicle: saline with Tween-80); 89 % of control (dose: 25.0 mg/kg/injection, schedule: Q01DX009 (ip), vehicle: saline with Tween-80); 94 % of control under setting [2]; 114 % of control under setting [3].
On to `[N-]=[N+]=Nc1ccc(Cl)cc1C(=O)c1ccccc1`, for which the T/C (dose: 25.0 mg/kg/injection, schedule: Q04DX003 (ip), vehicle: saline) is 104 % of control; the T/C under setting [4] is 90 % of control; the T/C under setting [5] was 109 % of control.
For the molecule `NNc1c(C(N)=O)c2c(N)ncnc2n1C1OC(CO)C(O)C1O` (centres undefined), the T/C was 171 % of control (dose: 50.0 mg/kg/injection, schedule: Q04DX003 (ip), vehicle: water); 166 % of control (dose: 100.0 mg/kg/injection, schedule: Q04DX003 (ip), vehicle: water); 199 % of control (dose: 200.0 mg/kg/injection, schedule: Q04DX003 (ip), vehicle: water).
`Cc1c2oc3c(C)ccc(C(=O)NC4C(=O)NC(C(C)C)C(=O)N5CCCC5C(=O)N(C)CC(=O)N(C)C(C(C)C)C(=O)OC4C)c3nc-2c(C(=O)NC2C(=O)NC(C(C)C)C(=O)N3CCCC3C(=O)N(C)CC(=O)N(C)C(C(C)C)C(=O)OC2C)cc1=O` (centres undefined): the T/C (dose: 0.24 mg/kg/injection, schedule: Q01DX009 (ip), vehicle: saline + alcohol) was 97 % of control; the T/C (dose: 0.34 mg/kg/injection, schedule: Q01DX009 (ip), vehicle: saline + alcohol) was 101 % of control; the T/C (dose: 0.49 mg/kg/injection, schedule: Q01DX009 (ip), vehicle: saline + alcohol) is 100 % of control; the T/C (dose: 0.7 mg/kg/injection, schedule: Q01DX009 (ip), vehicle: saline + alcohol) is 112 % of control; the T/C (dose: 1.0 mg/kg/injection, schedule: Q01DX009 (ip), vehicle: saline + alcohol) is 106 % of control; the T/C (dose: 1.17 mg/kg/injection, schedule: Q04DX003 (ip), vehicle: saline + alcohol) is 107 % of control and 124 % of control. Further, the T/C runs as follows: (dose: 1.7 mg/kg/injection, schedule: Q04DX003 (ip), vehicle: saline + alcohol) 104 % of control; (dose: 1.94 mg/kg/injection, schedule: Q04DX003 (ip), vehicle: saline + alcohol) 107 % of control; (dose: 2.4 mg/kg/injection, schedule: Q01DX001 (ip), vehicle: saline + alcohol) 112 % of control; (dose: 3.4 mg/kg/injection, schedule: Q01DX001 (ip), vehicle: saline + alcohol) 113 % of control; (dose: 4.9 mg/kg/injection, schedule: Q04DX003 (ip), vehicle: saline + alcohol) 150 % of control; (dose: 5.4 mg/kg/injection, schedule: Q04DX003 (ip), vehicle: saline + alcohol) 168 % of control. Besides, the T/C was 169 % of control (dose: 7.0 mg/kg/injection, schedule: Q04DX003 (ip), vehicle: saline + alcohol); 159 % of control and 176 % of control (dose: 9.0 mg/kg/injection, schedule: Q04DX003 (ip), vehicle: saline + alcohol); 153 % of control (dose: 10.0 mg/kg/injection, schedule: Q01DX001 (ip), vehicle: saline + alcohol); 183 % of control and 193 % of control (dose: 15.0 mg/kg/injection, schedule: Q04DX003 (ip), vehicle: saline + alcohol).
For the molecule `COC(=O)[C@]1(C)CCC[C@]2(C)[C@H]3CC4OO[C@@]3(CC[C@H]21)[C@H]1O[C@@]41C(C)C`, the T/C by setting is: (dose: 100.0 mg/kg/injection, schedule: Q01DX009 (ip), vehicle: other) 120 % of control; (dose: 100.0 mg/kg/injection, schedule: Q04DX003 (ip), vehicle: other) 113 % of control; (dose: 132.0 mg/kg/injection, schedule: Q01DX009 (ip), vehicle: other) 100 % of control; (dose: 200.0 mg/kg/injection, schedule: Q01DX009 (ip), vehicle: other) 87 % of control; (dose: 200.0 mg/kg/injection, schedule: Q04DX003 (ip), vehicle: other) 118 % of control; (dose: 400.0 mg/kg/injection, schedule: Q04DX003 (ip), vehicle: other) 104 % of control.
For `CC(=O)C1=CC2(OC3CCC(O)(C(=O)CO)C(C)O3)C(=O)c3c(cc4cccc(O)c4c3O)CC2C(O)C1O` (centres undefined), the T/C runs as follows: (dose: 19.0 mg/kg/injection, schedule: Q01DX010 (ip), vehicle: carboxymethylcellulose (CMC)) 100 % of control; (dose: 38.0 mg/kg/injection, schedule: Q01DX010 (ip), vehicle: carboxymethylcellulose (CMC)) 100 % of control; (dose: 75.0 mg/kg/injection, schedule: Q01DX010 (ip), vehicle: carboxymethylcellulose (CMC)) 104 % of control; (dose: 150.0 mg/kg/injection, schedule: Q01DX010 (ip), vehicle: carboxymethylcellulose (CMC)) 104 % of control.
As to `CCC(C#N)(c1ccccc1)c1ccccc1`, the T/C (dose: 100.0 mg/kg/injection, schedule: Q01DX009 (ip), vehicle: Klucel (hydroxypropylcellulose) (HPC)) is 90 % of control; the T/C (dose: 100.0 mg/kg/injection, schedule: Q04DX003 (ip), vehicle: Klucel (hydroxypropylcellulose) (HPC)) is 95 % of control; the T/C (dose: 200.0 mg/kg/injection, schedule: Q04DX003 (ip), vehicle: Klucel (hydroxypropylcellulose) (HPC)) is 95 % of control; the T/C (dose: 400.0 mg/kg/injection, schedule: Q01DX009 (ip), vehicle: Klucel (hydroxypropylcellulose) (HPC)) is 100 % of control; the T/C (dose: 400.0 mg/kg/injection, schedule: Q04DX003 (ip), vehicle: Klucel (hydroxypropylcellulose) (HPC)) was 100 % of control.
